Laboratory results: patent publication US20130261077A1 (priority 2012, published 2013)

What was measured:
FimH-CRD [1] = biological target: T1, FimH-CRD (Escherichia coli, UniProt P08191); assay: Competitive binding assay by fluorescence polarization, assay 2 (compounds prepared by robotics, plates frozen and thawed)
T1 construct: The first 177 amino acids of the FimH protein; thrombin tag (printed as 'fusion protein with thrombin') (cleaved yes); made in house; host or cells: bacteria (pET21b plasmid)
Description: The first 177 amino acids of the FimH protein were expressed as a fusion protein with thrombin in a pET21b plasmid in bacteria. This FimH protein sequence contains the carbohydrate recognition domain (CRD) and shall be termed FimH-CRD. Following bacterial expression of the protein, the FimH-CRD protein was purified to homogeneity and the thrombin tag removed by protease cleavage. A competitive binding assay by fluorescence polarization was performed using 5 nM of the Alexa 647 mannoside probe and 60 nM of the FimH-CRD. The samples are assayed in a low volume 384 well microtiter plate in a final volume of 20 μl. The final assay buffer conditions are the following, 50 mM Tris-Cl, ph 7.0, 100 mM NaCl, 1 mM EDTA, 5 mM β-mercaptoethanol, 0.05% BSA and 2.5% DMSO. Two assays are performed for FimH, termed assay 1 or assay 2. The assay conditions are the same for both assays except the following: assay 1 has compounds prepared by manual dilution in a serial dilution factor with 12-point dose response while assay 2 has compounds prepared by a robotics system also through a serial dilution factor (12 point dose response) and initially prepared in duplicate in 384 well-Corning polypropylene round bottom plates. The assay 2 plates have compound which is then frozen and must be thawed prior to use. Initially the Alexa 647 probe and the FimH-CRD are added to the assay buffer and then 0.5 μl of test compound (assay 1 or 2) between 0.4 nM to 75 μM final concentration are added (12 point titration with 3-fold serial dilution). Control wells for the Alexa 647 probe are prepared with the same conditions except for the addition of the FimH-CRD protein. Plates are then incubated for 5 hrs at room temperature in the dark and under humid conditions to prevent drying. Plates are read using the SpectraMax Paradigm multi-mode plate reader and the appropriate fluorescent polarization detection cartridge (Alexa-647).
Alexa 647 mannoside probe is prepared using the similar procedure reported for FAM mannoside (Han, Z. et. al., 2010, J. Med. Chem., 53, 4779) and is described in the scheme below.
To a blue colored stirred solution of (2S,3S,4S,5S,6R)-2-(4-aminobutoxy)-6-(hydroxymethyl)tetrahydropyran-3,4,5-triol (2.21 mg, 0.009 mmol) and the (2E)-2-[(2E,4E)-5-[3,3-dimethyl-5-sulfonato-1-(3-sulfonatopropyl)indol-1-ium-2-yl]penta-2,4-dienylidene]-3-[6-(2,5-dioxopyrrolidin-1-yl)oxy-6-oxo-hexyl]-3-methyl-1-(3-sulfonatopropyl)indoline-5-sulfonate (Potassium Ion (3)) (4.9 mg, 0.0044 mmol) in DMF (44 μL) is added Et3N (5.4 mg, 7.0 μL, 0.053 mmol) at RT. The solution is stirred at room temperature over night, concentrated, dissolved in water and purified on 12 g C-18 silica gel cartridge on Isolera system using acetonitrile in water (0 to 40%, 10 CV) and followed by lyophilization to afford Alexa 647 mannoside probe (3.3 mg, 34%) as deep blue solid.
The Kd values of the compounds are determined from dose response curves using twelve concentrations per compound in duplicate. Curves are fitted to data points using Fluorescence Polarization competitive displacement analysis, and Kds are interpolated from the resulting curves using GraphPad Prism software, version […] (GraphPad software Inc., San Diego, Calif., USA).

FimH-CRD [2] = biological target: T1, FimH-CRD; assay: Competitive binding assay by fluorescence polarization, assay 1 (compounds prepared by manual serial dilution)
Outline: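 Compounds at 0.4 nM–75 μM final (12 points, 3-fold steps, duplicate) compete with a 5 nM Alexa 647 mannoside probe for 60 nM FimH-CRD; 5 h room-temperature incubation in pH 7.0 Tris buffer with 2.5% DMSO, FP read-out, Kd from fitted curves. Assay 1 uses manual dilution, assay 2 robot-made frozen/thawed plates.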

T1 sequence (P08191 22-177): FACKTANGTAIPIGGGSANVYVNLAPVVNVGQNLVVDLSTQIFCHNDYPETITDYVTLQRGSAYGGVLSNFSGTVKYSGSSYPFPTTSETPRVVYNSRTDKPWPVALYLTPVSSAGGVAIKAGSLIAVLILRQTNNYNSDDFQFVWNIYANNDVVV

| Compound | Kd (FimH-CRD [1]) | IC50 (FimH-CRD [2]) | Kd (FimH-CRD [2]) |
| --- | --- | --- | --- |
| C#Cc1cccc([C@H]2O[C@H](CO)[C@@H](O)[C@H](O)[C@@H]2O)c1 [Compound 73, ((2R,3S,4R,5S,6R)-2-(3-Ethynylphenyl)-6-(hydroxymethyl)tetrahydropyran-3,4,5-triol)] | 0.0338 ± 0.0136 µM |  |  |
| C#Cc1ccc([C@H]2O[C@H](CO)[C@@H](O)[C@H](O)[C@@H]2O)cc1 [Compound 74, (2R,3S,4R,5S,6R)-2-(4-Ethynylphenyl)-6-(hydroxymethyl)tetrahydropyran-3,4,5-triol] | 0.0264 ± 0.0143 µM |  |  |
| C#Cc1cc([C@H]2O[C@H](CO)[C@@H](O)[C@H](O)[C@@H]2O)ccc1OC [Compound 75, (2R,3S,4R,5S,6R)-2-(3-Ethynyl-4-methoxy-phenyl)-6-(hydroxymethyl)tetrahydropyran-3,4,5-triol] | 0.04 ± 0.0113 µM |  |  |
| Cc1c(Br)cccc1[C@H]1O[C@H](CO)[C@@H](O)[C@H](O)[C@@H]1O [Compound 76, (2R,3S,4R,5S,6R)-2-(3-Bromo-2-methyl-phenyl)-6-(hydroxymethyl)tetrahydropyran-3,4,5-triol] | 0.0389 ± 0.013 µM |  |  |
| COc1cc([C@H]2O[C@H](CO)[C@@H](O)[C@H](O)[C@@H]2O)ccc1Br [Compound 77] | 0.0817 ± 0.011 µM |  |  |
| COC(=O)c1cccc(Cn2cc(-c3ccc([C@H]4O[C@H](CO)[C@@H](O)[C@H](O)[C@@H]4O)cc3)nn2)c1 [Compound 80, Methyl 3-[[4-[4-[(2R,3S,4R,5S,6R)-3,4,5-trihydroxy-6-(hydroxymethyl)tetrahydropyran-2-yl]phenyl]triazol-1-yl]methyl]benzoate] | 0.0123 ± 0.0062 µM |  |  |
| OC[C@H]1O[C@H](c2ccc(-c3cn(Cc4ccccc4)nn3)cc2)[C@@H](O)[C@@H](O)[C@@H]1O [Compound 81, (2R,3S,4R,5S,6R)-2-[4-(1-Benzyltriazol-4-yl)phenyl]-6-(hydroxymethyl)tetrahydropyran-3,4,5-triol] | 0.0152 ± 0.0043 µM |  |  |
| COC(=O)c1cc(C#Cc2cc([C@H]3O[C@H](CO)[C@@H](O)[C@H](O)[C@@H]3O)ccc2OC)cc(C(=O)OC)c1 [Compound 82, Dimethyl 5-[2-[2-methoxy-5-[(2R,3S,4R,5S,6R)-3,4,5-trihydroxy-6-(hydroxymethyl)tetrahydropyran-2-yl]phenyl]ethynyl]benzene-1,3-dicarboxylate] | 0.0232 ± 0.0151 µM |  |  |
| CNC(=O)c1cccc(C#Cc2cc([C@H]3O[C@H](CO)[C@@H](O)[C@H](O)[C@@H]3O)ccc2OC)c1 [Compound 83, 3-[2-[2-Methoxy-5-[(2R,3S,4R,5S,6R)-3,4,5-trihydroxy-6-(hydroxymethyl)tetrahydropyran-2-yl]phenyl]ethynyl]-N-methyl-benzamide] | 0.0322 ± 0.0058 µM |  |  |
| CNC(=O)c1cc(C#Cc2cc([C@H]3O[C@H](CO)[C@@H](O)[C@H](O)[C@@H]3O)ccc2OC)cc(C(=O)NC)c1 [Compound 84, 5-[2-[2-Methoxy-5-[(2R,3S,4R,5S,6R)-3,4,5-trihydroxy-6-(hydroxymethyl)tetrahydropyran-2-yl]phenyl]ethynyl]-N1,N3-dimethyl-benzene-1,3-dicarboxamide] | 0.0275 ± 0.0039 µM |  |  |
| COC(=O)c1ccc(CCC[C@H]2O[C@H](CO)[C@@H](O)[C@H](O[C@H]3O[C@H](CO)[C@@H](O)[C@H](O)[C@@H]3O)[C@@H]2O)cc1 [Compound 283, Methyl 4-[3-[(2R,3R,4R,5R,6R)-3,5-dihydroxy-6-(hydroxymethyl)-4-[(2R,3S,4S,5S,6R)-3,4,5-trihydroxy-6-(hydroxymethyl)tetrahydropyran-2-yl]oxy-tetrahydropyran-2-yl]propyl]benzoate] |  | 0.027 µM | 0.0108 ± 0.0041 µM |
| COc1cccc([C@H]2O[C@H](CO)[C@@H](O)[C@H](O[C@H]3O[C@H](CO)[C@@H](O)[C@H](O)[C@@H]3O)[C@@H]2O)c1 [Compound 284, (2R,3S,4S,5S,6R)-2-[(2R,3R,4R,5R,6R)-3,5-Dihydroxy-2-(hydroxymethyl)-6-(3-methoxyphenyl)tetrahydropyran-4-yl]oxy-6-(hydroxymethyl)tetrahydropyran-3,4,5-triol] |  | 0.049 µM | 0.166 ± 0.0965 µM |
| OC[C@H]1O[C@H](O[C@@H]2[C@H](O)[C@@H](c3cccc(OCC4CCCC4)c3)O[C@H](CO)[C@H]2O)[C@@H](O)[C@@H](O)[C@@H]1O [Compound 285, (2R,3S,4S,5S,6R)-2-[(2R,3R,4R,5R,6R)-2-[3-(Cyclopentylmethoxy)phenyl]-3,5-dihydroxy-6-(hydroxymethyl)tetrahydropyran-4-yl]oxy-6-(hydroxymethyl)-tetrahydropyran-3,4,5-triol] |  | 0.08 µM | 0.0147 ± 0.0012 µM |
| OC[C@H]1O[C@H](O[C@@H]2[C@H](O)[C@@H](c3cccc(OCCF)c3)O[C@H](CO)[C@H]2O)[C@@H](O)[C@@H](O)[C@@H]1O [Compound 287, (2R,3S,4S,5S,6R)-2-[(2R,3R,4R,5R,6R)-2-[3-(2-Fluoroethoxy)phenyl]-3,5-dihydroxy-6-(hydroxymethyl)tetrahydropyran-4-yl]oxy-6-(hydroxymethyl)tetrahydropyran-3,4,5-triol] |  | 0.107 µM | 0.0322 ± 0.0085 µM |
| CNC(=O)COc1cccc([C@H]2O[C@H](CO)[C@@H](O)[C@H](O[C@H]3O[C@H](CO)[C@@H](O)[C@H](O)[C@@H]3O)[C@@H]2O)c1 [Compound 288, 2-[3-[(2R,3R,4R,5R,6R)-3,5-dihydroxy-6-(hydroxymethyl)-4-[(2R,3S,4S,5S,6R)-3,4,5-trihydroxy-6-(hydroxymethyl)tetrahydropyran-2-yl]oxy-tetrahydropyran-2-yl]phenoxy]-N-methyl-acetamide] |  | 0.046 µM | 0.0287 ± 0.0256 µM |
| COc1ccc([C@H]2O[C@H](CO)[C@@H](O)[C@H](O[C@H]3O[C@H](CO)[C@@H](O)[C@H](O)[C@@H]3O)[C@@H]2O)cc1O [Compound 289, (2R,3S,4S,5S,6R)-2-[(2R,3R,4R,5R,6R)-3,5-Dihydroxy-2-(3-hydroxy-4-methoxy-phenyl)-6-(hydroxymethyl)tetrahydropyran-4-yl]oxy-6-(hydroxymethyl)tetrahydropyran-3,4,5-triol] |  | 0.175 µM | 0.162 ± 0.241 µM |
| COc1ccc(C2O[C@H](CO)[C@@H](O)[C@H](O[C@H]3O[C@H](CO)[C@@H](O)[C@H](O)[C@@H]3O)[C@@H]2O)cc1Oc1ccc(NC(=O)C(C)C)cc1 (some centres unmarked) [Compound 290] |  | 0.029 µM | 0.0119 ± 0.0049 µM |
| CNC(=O)c1cccc(Oc2ccc([C@H]3O[C@H](CO)[C@@H](O)[C@H](O)[C@@H]3O)cc2)c1 [Compound 292, N-methyl-3-(4-((2R,3S,4R,5S,6R)-3,4,5-trihydroxy-6-(hydroxymethyl)tetrahydro-2H-pyran-2-yl)phenoxy)benzamide] |  |  | 0.006 ± 0.0004 µM |
| COC(=O)Cc1cccc(Oc2ccc([C@H]3O[C@H](CO)[C@@H](O)[C@H](O)[C@@H]3O)cc2)c1 [Compound 293, methyl 2-(3-(4-((2R,3S,4R,5S,6R)-3,4,5-trihydroxy-6-(hydroxymethyl)tetrahydro-2H-pyran-2-yl)phenoxy)phenyl)acetate] |  |  | 0.009 ± 0.002 µM |
| COC(=O)c1cccc(-c2ccc([C@H]3O[C@H](CO)[C@@H](O)[C@H](O)[C@@H]3O)cc2)c1 [Compound 294, methyl 4′-((2R,3S,4R,5S,6R)-3,4,5-trihydroxy-6-(hydroxymethyl)tetrahydro-2H-pyran-2-yl)-[1,1′-biphenyl]-3-carboxylate] |  |  | 0.011 ± 0.003 µM |
| CNC(=O)c1cccc(-c2ccc([C@H]3O[C@H](CO)[C@@H](O)[C@H](O)[C@@H]3O)cc2)c1 [Compound 295, N-methyl-4′-((2R,3S,4R,5S,6R)-3,4,5-trihydroxy-6-(hydroxymethyl)tetrahydro-2H-pyran-2-yl)-[1,1′-biphenyl]-3-carboxamide] |  |  | 0.012 ± 0.003 µM |
| CNC(=O)c1ccc(-c2ccc([C@H]3O[C@H](CO)[C@@H](O)[C@H](O)[C@@H]3O)cc2)cc1 [Compound 296, N-methyl-4′-((2R,3S,4R,5S,6R)-3,4,5-trihydroxy-6-(hydroxymethyl)tetrahydro-2H-pyran-2-yl)-[1,1′-biphenyl]-4-carboxamide] |  |  | 0.005 ± 0.0004 µM |
